Experimental data taken from patent US20060058314A1, “Oxazolidinone derivatives and their use as antibacterial agents” (AstraZeneca AB, priority 2002, published 2006).

Legend:
Assay type in all cases: cell-based
[1] = test system: Staphylococcus aureus MRQR (methicillin resistant and quinolone resistant); test: MIC, agar dilution, staphylococci; conditions: 10^4 CFU/spot, 37° C., 24 hours
Method: (§1) The following results were obtained on a standard in-vitro test system. The activity is described in terms of the minimum inhibitory concentration (MIC) determined by the agar-dilution technique with an inoculum size of 10^4 CFU/spot. Typically, compounds are active in the range 0.01 to 256 μg/ml.
(§2) Staphylococci were tested on agar, using an inoculum of 10^4 CFU/spot and an incubation temperature of 37° C. for 24 hours—standard test conditions for the expression of methicillin resistance.

[2] = test system: Staphylococcus aureus MSQS (methicillin sensitive and quinolone sensitive); test: MIC, agar dilution, staphylococci; conditions: 10^4 CFU/spot, 37° C., 24 hours
Method: as §1, §2

[3] = test system: Linezolid Resistant Streptococcus pneumoniae; test: MIC, agar with 5% defibrinated horse blood, streptococci; conditions: agar + 5% horse blood, 10^4 CFU/spot, 37° C., 5% CO2, 48 hours
Method: as §1
(§3) Streptococci and enterococci were tested on agar supplemented with 5% defibrinated horse blood, an inoculum of 10^4 CFU/spot and an incubation temperature of 37° C. in an atmosphere of 5% carbon dioxide for 48 hours—blood is required for the growth of some of the test organisms. Fastidious Gram negative organisms were tested in Mueller-Hinton broth, supplemented with hemin and NAD, grown aerobically for 24 hours at 37° C., and with an innoculum of 5×10^4 CFU/well.

[4] = test system: Streptococcus pneumoniae; test: as above; conditions: agar + 5% horse blood, 10^4 CFU/spot, 37° C., 5% CO2, 48 hours
Method: as §1, §3

[5] = test system: Haemophilus influenzae; test: MIC, fastidious Gram negative organisms in Mueller-Hinton broth; conditions: Mueller-Hinton broth + hemin and NAD, 24 hours, 37° C., 5×10^4 CFU/well
Method: as §1, §3

[6] = test system: Moraxella catarrhalis; test: as above; conditions: Mueller-Hinton broth + hemin and NAD, 24 hours, 37° C., 5×10^4 CFU/well
Method: as §1, §3

[7] = test system: Enterococcus faecium; test: MIC, agar with 5% defibrinated horse blood, enterococci; conditions: agar + 5% horse blood, 10^4 CFU/spot, 37° C., 5% CO2, 48 hours
Method: as §1, §3

- MIC [1]: 2 µg/mL
- MIC [2]: 2 µg/mL
- MIC [3]: 4 µg/mL
- MIC [4]: 0.25 µg/mL
- MIC [5]: 8 µg/mL
- MIC [6]: 2 µg/mL
- MIC [7]: 2 µg/mL
SMILES: O=C1O[C@@H](Cn2ccnn2)CN1c1ccc(-c2cnc(C3=NOC(CO)C3)nc2)c(F)c1 (mixture of isomers) [Example 1, 3-(3-Fluoro-4-{2-(5RS)-[5-(hydroxymethyl)-4,5-dihydroisoxazol-3-yl]pyrimidin-5-yl}phenyl)-5-(5R)-(1H-1,2,3-triazol-1-ylmethyl)-1,3-oxazolidin-2-one]
